Series [1] relates to haloperidol-induced catalepsy in mice. Nature of the series: Reversal of haloperidol-induced catalepsy in mice. Format: in vivo, mouse. The note with it: for Score + SE: haloperidol 6 mg/kg s.c., max score 12; for % of control: score vs saline control. The method, then:
All drugs were administered i.p. in a volume of 0.2 mL. Two hours later, haloperidol was injected s.c. at a dose of 6 mg/kg in a volume of 0.1-0.2 mL. Motor coordination tests were made at 3 hours after giving haloperidol, that is, 5 hours after administering the presumed protective drugs.
Motor coordination tests and rigidity were quantified according to three different parameters: (a) ability to walk the length of a horizontal rod, 80 cm-long; (b) ability to climb down, face down, a vertical rod, 80 cm-long; (c) duration of immobility in an unnatural sitting posture whereby the abdomen of the mouse is pressed against a “wall.” Full performance as in haloperidol-untreated mice is given the score of 4 in each test, or a total of 12 in all tests. Poor performance is given a score from 1 to 3.

The subject of series [2] is α-MpT-induced hypokinesia in rats. Nature of the series: Reversal of α-MpT-induced hypokinesia in rats. Format: in vivo, rat. The note with it: for Score + SE (total motor activity, 10 hours): α-MpT 100 mg/kg i.p. The method, then:
The drug α-MpT is assumed to inhibit the formation of L-DOPA from tyrosine, and consequently the formation of dopamine itself. Lack of CNS dopamine is expressed as hypoactivity. […] Two hours later they received i.p. α-MpT at a dose of 100 mg/kg in 0.3-0.5 mL. Controls received saline. Following this, motor activity was recorded in a computerized activity cage for the duration of 10 hours.

The target of a further series is T1, MAO-A (Rattus norvegicus, UniProt P21396).
T1 construct: MAO activity determined in brain and liver; from tissue; host or cells: brain and liver of male Sprague-Dawley-derived rats
T1 sequence (P21396 1-526): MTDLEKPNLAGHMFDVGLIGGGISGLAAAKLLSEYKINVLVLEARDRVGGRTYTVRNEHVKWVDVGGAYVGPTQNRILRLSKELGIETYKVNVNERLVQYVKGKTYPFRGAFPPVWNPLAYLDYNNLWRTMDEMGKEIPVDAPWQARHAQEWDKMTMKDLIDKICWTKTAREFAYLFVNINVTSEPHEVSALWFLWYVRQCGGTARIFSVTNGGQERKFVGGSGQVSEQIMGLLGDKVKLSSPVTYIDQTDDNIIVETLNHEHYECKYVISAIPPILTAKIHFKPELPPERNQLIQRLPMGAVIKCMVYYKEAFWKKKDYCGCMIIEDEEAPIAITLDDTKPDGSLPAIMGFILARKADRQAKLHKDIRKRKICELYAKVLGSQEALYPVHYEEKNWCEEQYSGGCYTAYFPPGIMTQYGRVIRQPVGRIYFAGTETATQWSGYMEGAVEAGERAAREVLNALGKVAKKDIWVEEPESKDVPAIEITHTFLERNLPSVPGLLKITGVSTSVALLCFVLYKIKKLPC
Nature of the series: Inhibition of MAO activity in vivo, acute treatment, MAO-A. The conditions noted are these: rat.

Series [3] concerns cardiovascular effects in animals. The note with it: cited from earlier work.
The target of another series is T2, MAO-B (Rattus norvegicus, UniProt P19643).
T2 sequence (P19643 1-520): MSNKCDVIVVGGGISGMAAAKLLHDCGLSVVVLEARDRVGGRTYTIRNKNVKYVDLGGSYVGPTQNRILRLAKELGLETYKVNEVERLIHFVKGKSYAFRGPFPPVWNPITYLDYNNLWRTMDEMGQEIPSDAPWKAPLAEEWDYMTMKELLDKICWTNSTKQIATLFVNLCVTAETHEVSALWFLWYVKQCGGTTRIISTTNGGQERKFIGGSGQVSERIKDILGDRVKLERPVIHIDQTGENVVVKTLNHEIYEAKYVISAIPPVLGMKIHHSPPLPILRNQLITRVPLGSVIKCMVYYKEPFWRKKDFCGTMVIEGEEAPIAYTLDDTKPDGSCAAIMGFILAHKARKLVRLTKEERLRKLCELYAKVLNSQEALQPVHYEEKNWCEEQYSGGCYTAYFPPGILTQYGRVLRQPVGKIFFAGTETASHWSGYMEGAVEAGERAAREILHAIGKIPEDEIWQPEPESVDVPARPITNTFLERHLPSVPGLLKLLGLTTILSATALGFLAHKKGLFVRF
Nature of the series: Inhibition of MAO activity in vivo, acute treatment, MAO-B. On the set-up: in a rat brain preparation of MAO; host or cells: rat brain preparation.

Series [4] relates to maximal electroshock seizures in rats. Nature of the series: Maximal electroshock test (MES test) in rats. Format: in vivo, rat. The note with it: p.o., 50 mg/kg. The text has this: The MES test is a classical model to indicate efficacy for partial and generalized seizures in humans. The agents' mechanism of action is via their ability to prevent the spread of seizures. Some agents, however, that prevent seizure spread have the side effect of lowering seizure threshold. These agents therefore have both proconvulsive and anticonvulsive side effects.

The next series deals with guinea-pig ileum. Nature of the series: Antagonism of bethanechol-induced (fixed dose) contractions of guinea-pig ileum. The note with it: bethanechol 0.8 μM.
The test system of series [5] is neonatal rat cerebellum cell cultures. The note with it: 0.01 μM + NMDA. The protocol:
Procedures: cultures of mechanically dissociated neonatal rat cerebellum. […] The cerebella are then dissociated after 20-25 passages through a sterile 13 gauge, 10 cm long stainless steel needle attached to a 5 ml syringe with an inserted 45 μm pore size nylon sieve. The dissociated cells are centrifuged at 200 g for 5 minutes, the supernatant discarded and the cells resuspended in enriched medium. The cell viability is determined by the trypan blue exclusion test. […] After 4 days in culture, the media are replaced with media containing the desired test compounds. Experiments are done in duplicate and repeated 2 or 3 times. […] Nerve cell survival is evaluated by phase contrast microscopy and trypan blue staining after 24 h.
Values, expressed as the percent of untreated controls, represent the average of 2 experiments run in duplicate for culture experiments, and the mean±SEM of 4 animals for ischemia. The percent protection value is the effect of the test compound after subtraction of the solvent effect.

Series [6] in a line: Appearance of PAI salts under destructive conditions. Format: physicochemical. The protocol:
Comparative stability studies were carried out under sets of several accelerating conditions: I) heating at 80° C. for 72, 96 or 144 hours; and II) reflux in isopropanol for 30 hours. The degradation products developed were measured by HPLC and confirmed by TLC. The results are presented in Table 9 with the relative retention time (relative to the PAI peak; RRT) as an area percentage relative to ? integrated peak area.
The salts were submitted to visual inspection of color an form.

Series [7] in a line: Physicochemical properties of PAI salts. The note with it: for pH: 1% aqueous solution of the PAI salt.
Description: The melting range was measured with an automatic apparatus (Mettler FP 80) and thermo-gravimetric analysis was performed on a Mettler TA 3000 system at a rate of 10° C./min in the applicable range. […] The pH was measured in a 1% aqueous solution of the PAI salts.

Where a name gives a salt, the structure may show the parent alone.

Results on 10 molecules are retold here after patent publication US20060094783A1 (Tava Pharmaceutical Industries, Ltd., priority 1990, published 2006).

Regarding `C#CCNC1CCc2ccccc21` (racemic) [Rac PAI Mesylate], the “Score + SE” value in [1] (3.0 mg/kg i.p. (free base)) is 5.9 ± 0.7; in series [1] (5.0 mg/kg i.p. (free base)) it was 6.4 ± 0.4; in series [1] (10 mg/kg i.p. (free base)) it was 9.2 ± 0.6; in series [1] (15 mg/kg i.p. (free base)), 8.8 ± 0.8. Also, the “% of control” value turned out to be 49% in [1] (3.0 mg/kg i.p.); 53% in series [1] (5.0 mg/kg i.p.); 77% in [1] (10 mg/kg i.p.); 73% in [1] (15 mg/kg i.p.); 57% in series [2] (2 mg/kg i.p., vs saline control). In addition, the “protection against haloperidol (in words)” value in series [1] (5 mg/kg) is “not active”. In [2] (2 mg/kg), the “restoration of motor activity (in words)” value is given as “not active”. The “Score + SE (total motor activity, 10 hours)” value in [2] (2 mg/kg i.p.) is on record as 9,035 ± 829; in [2] (5 mg/kg i.p.), 10,926 ± 820; in series [2] ([…] i.p.) it was 9,698 ± 557.

`C#CCNC1CCc2ccccc21` (racemic) [Rac, N-propargyl-1-aminoindan]: the “IC-50 MAO-A” value against MAO-A (I.P., liver, 1 h after dose) was 5 mg/kg; at MAO-A (P.O., brain, 2 h after dose) it was more than 5 mg/kg; on MAO-A (P.O., liver, 2 h after dose) it was more than 5 mg/kg. Further, the blood pressure entry in series [3] (comparative animal tests) is listed as “does not increase blood pressure”. In addition, the tachycardia result in series [3] (comparative animal tests) is “no significant tachycardia”. Moreover, the “IC-50 MAO-B” value is 0.22 mg/kg at MAO-B (I.P., brain, 1 h after dose); 0.11 mg/kg against MAO-B (I.P., liver, 1 h after dose); 0.09 mg/kg on MAO-B (P.O., liver, 2 h after dose).

On to `C#CCNC1CCc2ccccc21.Cl` (racemic) [racemic PAI.HCl, Racemic N-propargyl-1-aminoindan hydrochloride], for which, in [3] (Finberg et al.), the “potentiation of the cardiovascular effects of tyramine” value was “does not potentiate”.

Consider `C#CCN[C@@H]1CCc2ccccc21.Cl` [(R)-PAI HCl, R-(+)-N-Propargyl-1-aminoindan hydrochloride], for which the “animals protected from seizures” value in [4] is listed as “three out of four”. The Percent relaxation in the series on guinea-pig ileum (PAI concentration 20 μM) was 25; in the series on guinea-pig ileum (PAI concentration 60 μM), 25-50; in the series with guinea-pig ileum (PAI concentration 100 μM), 50-70; in the series on guinea-pig ileum (PAI concentration 300 μM) it was 100.

`NCCCNCCCCNCCCN` [Spermine, reference compound]: the “Surviving Cells (percent of untreated controls)” value in series [5] is listed as 75. In addition, the “Percent Protection” value in series [5] (after subtraction of solvent effect) was found to be 65.

As for `Cl` [chloride], the “appearance: color” value is “white” in series [6] (80° C./72 h), “white” in series [6] (80° C./144 h) and “off white” in [6] (reflux in iPrOH/30 h). For the same molecule, the “appearance: form” value in series [6] (80° C./72 h), in [6] (80° C./144 h) and in series [6] (reflux in iPrOH/30 h) was “powder” each time.

For `C#CCN[C@@H]1CCc2ccccc21.CCS(=O)(=O)O` [esylate], the results for the “appearance: color” value in series [6] (80° C./72 h), in [6] (80° C./144 h) and in series [6] (reflux in iPrOH/30 h) were “brownish”, “dark brown” and “dark brown”, respectively. In addition, the “appearance: form” value in series [6] (80° C./72 h), in [6] (80° C./144 h) and in series [6] (reflux in iPrOH/30 h) was “melted” in each case. Further, the pH in [7] is recorded as 2.4.

On to `C#CCN[C@@H]1CCc2ccccc21.C#CCN[C@@H]1CCc2ccccc21.O=S(=O)(O)O` [sulphate], for which the results for the “appearance: color” value in [6] (80° C./72 h), in series [6] (80° C./144 h) and in [6] (reflux in iPrOH/30 h) were “off white”, “off white” and “brown”, respectively. For the same molecule, the “appearance: form” value in series [6] (80° C./72 h), in [6] (80° C./144 h) and in series [6] (reflux in iPrOH/30 h) was “powder” each time. Further, the pH in series [7] worked out at 3.9. Moreover, in series [7] (thermo-gravimetric analysis, 10° C./min), the “% Wt. loss” value was determined as 3.2%.

As to maleate, the “appearance: color” value in [6] (80° C./72 h), in [6] (80° C./96 h) and in series [6] (reflux in iPrOH/30 h) was “brown” in each case. Also, the “appearance: form” value in [6] (80° C./72 h) and in series [6] (reflux in iPrOH/30 h) was “melted” throughout.

For phosphate, the “appearance: color” value in [6] (80° C./72 h) was “brownish”; in series [6] (80° C./144 h), “brown”; in series [6] (reflux in iPrOH/30 h) it was “brown”. Also, the “appearance: form” value in series [6] (80° C./72 h), in [6] (80° C./144 h) and in [6] (reflux in iPrOH/30 h) was “powder” in each case. In addition, the pH in [7] is listed as 7.0.
